Values joined by “and” are separate entries in the source; they are usually repeats but may differ in a detail not shown here. Equal entries are not always repeated. Toxic doses and inconclusive results are not listed. How the source made its calls: active means survival T/C of 150% or more; inactive means T/C below 125% in these data.
Tested on: P388 leukemia ip, CD2F1 mice, survival T/C
Test: NCI In Vivo Anticancer Drug Screen. Data for tumor model P388 Leukemia (intraperitoneal) in CD2F1 (CDF1) mice
Settings: endpoint: median survival time, higher = longer survival
Method in brief: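 Mice carrying the transplanted tumor received test compound or vehicle. Survival was recorded in each group, and the value is the treated-group measurement divided by that of the vehicle-treated control group.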

[1] = dose: 50.0 mg/kg/injection, schedule: Q01DX009 (ip), vehicle: saline with Tween-80
[2] = dose: 100.0 mg/kg/injection, schedule: Q01DX009 (ip), vehicle: saline with Tween-80
[3] = dose: 60.0 mg/kg/injection, schedule: Q01DX005 (ip), vehicle: saline with Tween-80
[4] = dose: 120.0 mg/kg/injection, schedule: Q01DX005 (ip), vehicle: saline with Tween-80
[5] = dose: 240.0 mg/kg/injection, schedule: Q01DX005 (ip), vehicle: saline with Tween-80
[6] = dose: 50.0 mg/kg/injection, schedule: Q01DX005 (ip), vehicle: saline with Tween-80
[7] = dose: 100.0 mg/kg/injection, schedule: Q01DX005 (ip), vehicle: saline with Tween-80
[8] = dose: 200.0 mg/kg/injection, schedule: Q01DX005 (ip), vehicle: saline with Tween-80
[9] = dose: 100.0 mg/kg/injection, schedule: Q04DX003 (ip), vehicle: saline
[10] = dose: 200.0 mg/kg/injection, schedule: Q04DX003 (ip), vehicle: saline
[11] = dose: 50.0 mg/kg/injection, schedule: Q01DX005 (ip), vehicle: Klucel (hydroxypropylcellulose) (HPC)
[12] = dose: 100.0 mg/kg/injection, schedule: Q01DX005 (ip), vehicle: Klucel (hydroxypropylcellulose) (HPC)
[13] = dose: 200.0 mg/kg/injection, schedule: Q01DX005 (ip), vehicle: Klucel (hydroxypropylcellulose) (HPC)
[14] = dose: 15.0 mg/kg/injection, schedule: Q01DX005 (ip), vehicle: saline with Tween-80

Measured: T/C

OC1(C#Cc2ccccc2)c2ccccc2C(O)(C#Cc2ccccc2)c2cnccc21 (configuration not stated)
inactive: [1] 95 % of control | [2] 93 % of control | dose: 200.0 mg/kg/injection, schedule: Q01DX009 (ip), vehicle: saline with Tween-80 87 % of control

O=C1Nc2ccc(Br)cc2/C1=C/C(=O)c1ccccc1
inactive: dose: 50.0 mg/kg/injection, schedule: Q01DX009 (ip), vehicle: Klucel (hydroxypropylcellulose) (HPC) 111 % of control | dose: 100.0 mg/kg/injection, schedule: Q01DX009 (ip), vehicle: Klucel (hydroxypropylcellulose) (HPC) 101 % of control | dose: 200.0 mg/kg/injection, schedule: Q01DX009 (ip), vehicle: Klucel (hydroxypropylcellulose) (HPC) 103 % of control

CC(=O)NC(=S)Nc1ccccc1
inactive: dose: 25.0 mg/kg/injection, schedule: Q01DX001 (ip), vehicle: Klucel (hydroxypropylcellulose) (HPC) 100 % of control | dose: 50.0 mg/kg/injection, schedule: Q01DX001 (ip), vehicle: Klucel (hydroxypropylcellulose) (HPC) 101 % of control | dose: 100.0 mg/kg/injection, schedule: Q01DX001 (ip), vehicle: Klucel (hydroxypropylcellulose) (HPC) 103 % of control

CN(C)c1ccc(-c2nn(C)c3nc(=O)n(C)c(=O)c-3[n+]2[O-])cc1
inactive: dose: 1.56 mg/kg/injection, schedule: Q01DX001 (ip), vehicle: saline 101 % of control | dose: 3.12 mg/kg/injection, schedule: Q01DX001 (ip), vehicle: saline 103 % of control | dose: 6.25 mg/kg/injection, schedule: Q01DX001 (ip), vehicle: saline 100 % of control and 103 % of control

Cc1cc(=O)oc2ccc3c(=O)ccoc3c12
inactive: [3] 95 % of control | [4] 96 % of control | [5] 97 % of control

O=C1c2cc3c(cc2C(=O)c2ncccc21)CCCC3
inactive: [6] 98 % of control | [7] 86 % of control | [8] 89 % of control

CNC(=O)NS(=O)(=O)c1cnccc1Cl
inactive: dose: 100.0 mg/kg/injection, schedule: Q01DX001 (ip), vehicle: saline with Tween-80 97 % of control | dose: 200.0 mg/kg/injection, schedule: Q01DX001 (ip), vehicle: saline with Tween-80 100 % of control | dose: 400.0 mg/kg/injection, schedule: Q01DX001 (ip), vehicle: saline with Tween-80 97 % of control

COC(=O)/C=C1/Nc2c(n(C)c(=O)n(C)c2=O)NC1=O
inactive: [9] 107 % of control | [10] 94 % of control | dose: 400.0 mg/kg/injection, schedule: Q04DX003 (ip), vehicle: saline 99 % of control

CCCC(NC(=O)OCc1ccccc1)C(=O)NC(Cc1c[nH]c2ccccc12)C(=O)O (configuration not stated)
inactive: [11] 109 % of control | [12] 108 % of control | [13] 94 % of control

COc1cc(=O)cc2n(c1=O)CCC2
inactive: dose: 60.0 mg/kg/injection, schedule: Q01DX005 (ip), vehicle: saline 94 % of control | dose: 120.0 mg/kg/injection, schedule: Q01DX005 (ip), vehicle: saline 94 % of control | dose: 240.0 mg/kg/injection, schedule: Q01DX005 (ip), vehicle: saline 92 % of control

O=C(O)C1OC(N(O)c2ccc(Oc3ccc(Cl)cc3)cc2)C(O)C(O)C1O (configuration not stated)
inactive: [3] 106 % of control | [4] 100 % of control | [5] 100 % of control

CCOC(=O)C1=C(Nc2ccc([N+](=O)[O-])cc2)CCCC1
inactive: dose: 1.56 mg/kg/injection, schedule: Q01DX009 (ip), vehicle: saline 93 % of control | dose: 3.12 mg/kg/injection, schedule: Q01DX009 (ip), vehicle: saline 95 % of control | dose: 6.25 mg/kg/injection, schedule: Q01DX009 (ip), vehicle: saline 95 % of control

CCOC(OCC)c1ccc(-n2c(N)c(C#N)cnc2=S)c2c1OC2=NC=C(C#N)C#N
inactive: dose: 50.0 mg/kg/injection, schedule: Q01DX009 (ip), vehicle: saline 112 % of control | dose: 100.0 mg/kg/injection, schedule: Q01DX009 (ip), vehicle: saline 102 % of control | dose: 200.0 mg/kg/injection, schedule: Q01DX009 (ip), vehicle: saline 100 % of control

CCOC(=O)N1CCNCC1
inactive: [9] 108 % of control | [10] 108 % of control

O=[N+]([O-])c1ccc(C2=Nc3ccccc3N=C(c3ccccc3O)C2)cc1
inactive: dose: 0.93 mg/kg/injection, schedule: Q01DX005 (ip), vehicle: saline with Tween-80 100 % of control | dose: 1.87 mg/kg/injection, schedule: Q01DX005 (ip), vehicle: saline with Tween-80 113 % of control | dose: 3.75 mg/kg/injection, schedule: Q01DX005 (ip), vehicle: saline with Tween-80 91 % of control and 94 % of control | [14] 91 % of control | [5] 90 % of control

Clc1ccccc1-c1nnc(-c2cccc(-c3nnc(-c4ccccc4Cl)o3)n2)o1
inactive: dose: 7.5 mg/kg/injection, schedule: Q01DX005 (ip), vehicle: saline with Tween-80 89 % of control | [14] 91 % of control | dose: 30.0 mg/kg/injection, schedule: Q01DX005 (ip), vehicle: saline with Tween-80 89 % of control | [3] 101 % of control | [4] 97 % of control | [5] 104 % of control

NC1=NN(S(=O)(=O)c2ccc(Cl)cc2)CC1
inactive: [11] 96 % of control | [12] 88 % of control | [13] 90 % of control

O=c1c(=O)c2cc(O)ccc12
inactive: [6] 109 % of control | [7] 105 % of control | [8] 100 % of control

NC(C(=O)O)c1ccc(CO)cc1 (configuration not stated)
inactive: dose: 25.0 mg/kg/injection, schedule: Q01DX009 (ip), vehicle: saline with Tween-80 100 % of control | dose: 50.0 mg/kg/injection, schedule: Q01DX005 (ip), vehicle: water 86 % of control | [1] 86 % of control | dose: 100.0 mg/kg/injection, schedule: Q01DX005 (ip), vehicle: water 107 % of control | [2] 106 % of control | dose: 200.0 mg/kg/injection, schedule: Q01DX005 (ip), vehicle: water 97 % of control

Cn1c2cc3c(c(O)c2c(=O)c2cccnc21)C=CC(C)(C)O3
inactive: [11] 104 % of control | [12] 91 % of control | [13] 93 % of control

Source: PubChem BioAssay AID330 (DTP/NCI, 2004)
